Here are results for four compounds from patent EP0116944B1 (priority 1983, dated 1984).

Where two headings read alike, the source gives them in different places.

The subject of one data set is ST-Wellensenkung. Particulars: cited from earlier work.
The test system of data set [1] is Vasopressin-induzierten Koronarspasmen. Also noted: species or system Ratten. Particulars: in vivo; for Dauer der antianginösen Wirkung gegenüber Vasopressin: po.
A further data set in a line: in vivo. As to conditions: dog, iv.
For the next data set, the system named is systolischen Blutdruck. Also noted: species or system Hunde. Particulars: in vivo.
The subject of data set [2] is Blutdruck anästhesierter Ratten. As to conditions: in vivo.
For data set [3] the following is noted: intraduodenal, Ratten; cited from earlier work.
The subject of another data set is hypotensive Wirkung. Particulars: in vivo.
The test system of the next data set is Hypotensivum. Particulars: orale Verabreichung; cited from earlier work.

Turning to `OCCN(CCO)c1nc(N2CCCCC2)c2nc(N(CCO)CCO)nc(N3CCCCC3)c2n1` [Dipyridamol], the “Hemmung der ST-Wellensenkung” value in the data set with ST-Wellensenkung (in vivo) was “unwirksam”.
As for `O=[N+]([O-])OC(CO)CO` [2-GN, Glycerin-2-nitrat], the “Dauer der antianginösen Wirkung gegenüber Vasopressin” value in data set [1] was in the range of 2 to 3 h. The half-life (usually how long it takes for the measured level to halve) in “in vivo” is 2.1 h.
On to `O=[N+]([O-])OCC(CO[N+](=O)[O-])O[N+](=O)[O-]` [GTN, Glycerintrinitrat], for which, in data set [1], the “Hemmung der T-Wellenerhöhung / Vasopressin-induzierten Koronarspasmen” value is given as “entschieden den stärksten Einfluß” and the “Dauer der antianginösen Wirkung gegenüber Vasopressin” value lay in the range of 2 to 3 h. In the data set with systolischen Blutdruck, the “Beginn der Wirkung” value is 0,4 min and the “Einfluß auf den systolischen Blutdruck” value is “senkten”. In addition, in data set [2], the “Dauer der hypotensiven Wirkung” value came out at 14 min. The “Zeit, nach der kein weiterer Plasmawert der Ausgangssubstanz gemessen werden konnte” value in data set [3] is given as at most 5 min. Moreover, the “Hemmung der ST-Wellensenkung” value with ST-Wellensenkung (in vivo) was “hemmte”. The “hypotensive Wirkung nach Vorbehandlung mit DHE” value with hypotensive Wirkung is on record as “herabgesetzt”. Moreover, in the data set with Hypotensivum, the “Wirksamkeit als Hypotensivum” value is given as “inaktiv”.
On to `O=[N+]([O-])O[C@H]1CO[C@H]2[C@@H]1OC[C@H]2O[N+](=O)[O-]` [ISDN, Isosorbid-dinitrat], for which the “Hemmung der ST-Wellensenkung” value in the data set with ST-Wellensenkung (oral, Ratten) is reported as “hemmten”.
